Source: patent US5449672A, “Alkylaminoalkylpyrrolidinylthiocarbapenem derivatives” (Banyu Pharmaceutical Co., Ltd., priority 1991, dated 1995)
Values after ≈ are worked out from the molar mass of the structure shown. Like-named read-outs stand apart in the source and are kept apart here.

Assays:
[1] = tested on: P. aeruginosa MB5178; experiment: Minimum inhibitory concentration (MIC), agar plate dilution method, P. aeruginosa MB5178; format: cell-based; settings: Pseudomonas aeruginosa, read-out: Minimum Inhibitory Concentration (MIC)
Experimental: (§1) One platinum loopful of each test microorganism incubated overnight in Mueller Hinton broth, was inoculated to Mueller Hinton agar (inoculum size: 10^6 CFU/ml). Such culture media contained antibacterial agents in various concentrations. After incubation at 37° C. for 16 hours, the minimum inhibitory concentrations (MIC: μg/ml) were measured. Further, the DHP-I susceptibility was quantitatively analyzed by the method by Kropp et al. (Antimicrob. Agents Chemother., vol. 22, p. 62-70 (1982)), whereby the smaller the numerical value representing the ratio to imipenem (=1.0), the higher the stability.
(§2) The minimum inhibitory concentrations and the DHP-I susceptibility of the compounds of the present invention were compared with imipenem and the compound of REFERENCE EXAMPLE 4.

[2] = tested on: P. aeruginosa MB5002; experiment: Minimum inhibitory concentration (MIC), agar plate dilution method, P. aeruginosa MB5002; format: cell-based; settings: Pseudomonas aeruginosa, read-out: Minimum Inhibitory Concentration (MIC)
Experimental: as §1, §2

[3] = tested on: DHP-I (renal dehydropeptidase I); experiment: DHP-I susceptibility, method by Kropp et al.; format: in vitro ADME; settings: ratio to imipenem (=1.0); the smaller the value, the higher the stability
Experimental: as §1, §2

[4] = tested on: DHP-I; settings: in vivo; human kidney for imipenem; cited from earlier work
[5] = cited from earlier work
[6] = due to the decomposition products; cited from earlier work
[7] = tested on: gram positive bacteria and gram negative bacteria; settings: literature, in words; cited from earlier work
[8] = tested on: β-lactamase; settings: literature, in words; cited from earlier work
[9] = tested on: Methicillin resistant Staphylococcus aureus and resistant Pseudomonas aeruginosa; settings: prior-art compounds; highly methicillin resistant S. aureus and resistant P. aeruginosa; cited from earlier work
[10] = in words; cited from earlier work
[11] = P. aeruginosa MB5178, Mueller Hinton agar, inoculum 10^6 CFU/ml, 37° C., 16 hours
[12] = P. aeruginosa MB5002, Mueller Hinton agar, inoculum 10^6 CFU/ml, 37° C., 16 hours

CNCC[C@@H]1C[C@H](SC2=C(C(=O)O)N3C(=O)[C@H]([C@@H](C)O)[C@H]3[C@H]2C)CN1 [Example 1, (1R,5S,6S)-6-[(R)-1-Hydroxyethyl]-1-methyl-2-[(2R,4S)-2-[2-(methylamino)ethyl]pyrrolidin-4-ylthio]-1-carbapen-2-em-3-carboxylic Acid]
MIC [1, 11]: 3.13 µg/mL (≈ 8.47 µM) | MIC [2, 12]: 0.78 µg/mL (≈ 2.11 µM) | DHP-I susceptibility [3]: < 0.05

CNCCC[C@@H]1C[C@H](SC2=C(C(=O)O)N3C(=O)[C@H]([C@@H](C)O)[C@H]3[C@H]2C)CN1.Cl [Example 3, (1R,5S,6S)-6-[(R)-1-Hydroxyethyl]-1-methyl-2-[(2R,4S)-2-[3-(methylamino)propyl]pyrrolidin-4-ylthio]-1-carbapen-2-em-3-carboxylic acid Monohydrochloride]
MIC [1, 11]: 3.13 µg/mL | MIC [2, 12]: 0.78 µg/mL | DHP-I susceptibility [3]: 0.07

C[C@@H](O)[C@H]1C(=O)N2C(C(=O)O)=C(SCCN=CN)C[C@H]12 [Imipenem, (5R,6S,8R)-3-[[2-(formimidoylamino)ethyl]thio]-6-(1-hydroxyethyl)-7-oxo-1-azabicyclo[3.2.0]hept-2-en-2-carboxylic acid monohydrate]
decomposition by renal dehydropeptidase I (DHP-I) [4]: likely to be decomposed by DHP-I in the human kidney | stability in the solid form or in an aqueous solution ([5]; relative to thienamycin): remarkably improved over thienamycin | MIC ([1]; MB5178, 16 h): 25 µg/mL | MIC ([2]; MB5002, 16 h): 1.56 µg/mL | toxicity against the kidney [6]: presents toxicity against the kidney due to the decomposition products | antibacterial activities [7]: antibacterial activities of an equal or higher level than thienamycin against various types of bacteria | DHP-I susceptibility [3]: 1.0 | β-lactamase resistance [8]: has β-lactamase resistance | treating effects / antibacterial activities against resistant bacteria [9]: does not show adequate treating effects against these resistant bacteria

C[C@@H](O)[C@H]1C(=O)N2C(C(=O)O)=C(SCCN)C[C@H]12 [Thienamycin]
decomposition by renal dehydropeptidase I (DHP-I) [4]: likely to be decomposed by a certain enzyme in vivo such as renal dehydropeptidase I | chemical stability ([5]; literature, in words): chemically unstable | recovery rate in the urine [10]: low | antibacterial activities [7]: strong antibacterial activities over a wide range against gram positive bacteria and gram negative bacteria

CC(=O)NC[C@@H]1C[C@H](SC2=C(C(=O)O)N3C(=O)[C@H]([C@@H](C)O)[C@H]3[C@H]2C)CN1 [compound 1, (1R,5S,6S)-2-[(2S,4S)-2-(Acetylaminomethyl)pyrrolidin-4-ylthio]-6-[(R)-1-hydroxyethyl]-1-methyl-1-carbapen-2-em-3-carboxylic Acid]
MIC [1, 11]: 12.5 µg/mL (≈ 32.6 µM) | MIC [2, 12]: 6.25 µg/mL (≈ 16.3 µM) | DHP-I susceptibility [3]: 0.7
